This is an account of results in patent US8084610B2, “Compositions and methods for detecting and treating tumors containing acidic areas” (priority 2006, dated 2011).

The subject of series [1] is tumors. As to conditions: tumor-bearing mice; reduction of about 0.3 pH units in the tumors; cited from earlier work.
Series [2] in a line: Titration assay of sodium salts with 5 M HCl (pKa / effective pKa). Here is the method:
Typically new structures that may be suitable as advanced pH-switch components are first assessed for their pKa value in normal saline. This entails preparing the sodium salt form of the structure and dissolving it at a concentration of 20 milliMolar in 15 ml of 0.15 Molar NaCl (deareated to remove CO2). […] A plot of pH versus volume of added HCl affords the effective pKa value. It is also desirable to carry out this same titration in methanol/water (1:1 by vol) in order to get an estimate of the pKa value independent of insolubility effects.
The compound in FIG. 12a was prepared by reacting camphoric anhydride with dimethylamine. The compound in FIG. 12b was prepared by reacting camphoric anhydride with ethylamine. The sodium salts of compounds shown in FIG. 12a (designed to form an internal acid-specific H-bond) and 12b (designed to form non-acid-specific H-bonds) were titrated in aqueous solution.
The two compounds in FIG. 15 were prepared by reacting the respective anhydrides with dimethylamine, and then the sodium salts titrated in methanol/water, 1:1 by volume—in order to preclude insolubility effects impacting the titration curve.
The methyl ester of isonipocotic acid was alkylated with bromopropane and then the resultant tertiary amine oxidized to the N-oxide with meta-Chlorobenzoylperoxide. Finally, the ester was cleaved with aqueous sodium hydroxide to give structure iii in FIG. 16b. This product in its sodium salt form was titrated in water.

In the case of `O=C(O)CCCc1ccc(N(CCCl)CCCl)cc1` [Chlorambucil], in series [1], the “improvement in tumor growth delay” value was 1.7 fold.

Take `CN(C)C(=O)C=CC(=O)O` [FIG. 14b]: in series [2] (sodium salt titrated with HCl in water / aqueous solution), the “pKa value (mid-point of the transition between salt and acid)” value is “below 3.0”.

`CCC[N+]1([O-])CCC(C(=O)O)CC1` (stereo not shown) [structure iii in FIG. 16b, N-oxide of N-propylisonipocotic acid]: in series [2] (sodium salt titrated in water), the “first derivative of titration plot, minimum attributed to N-oxide moiety (pH)” value was roughly 4.0 and the “first derivative of titration plot, other minimum (pH), attributed to internal low-barrier H-bond” value is reported as roughly 5.6.
